Assay results taken from patent US20210045385A1, “PYRIDAZINONE-SUBSTITUTED KETOXIMES AS HERBICIDES” (FMC Corporation, priority 2018, published 2021).

Tests used:
Type in all cases: in vivo
[1] = tested on: foxtail, giant (giant foxtail, Setaria faberii); assay: Test A postemergence, visual plant response rating; conditions: Postemergence, 125 g ai/ha; 0 to 100 scale (0 no effect, 100 complete control)
Source text: (§1) Seeds of plant species selected from barnyardgrass (Echinochloa crus-galli), kochia (Kochia scoparia), ragweed (common ragweed, Ambrosia elatior), Italian ryegrass (Lolium multiflorum), foxtail, giant (giant foxtail, Setaria faberii), foxtail, green (green foxtail, Setaria viridis), and pigweed (Amaranthus retroflexus) were planted into a blend of loam soil and sand and treated preemergence with a directed soil spray using test chemicals formulated in a non-phytotoxic solvent mixture which included a surfactant.
(§2) At the same time, plants selected from these weed species and also wheat (Triticum aestivum), corn (Zea mays), blackgrass (Alopecurus myosuroides), and galium (catchweed bedstraw, Galium aparine) were planted in pots containing the same blend of loam soil and sand and treated with postemergence applications of test chemicals formulated in the same manner. Plants ranged in height from 2 to 10 cm and were in the one- to two-leaf stage for the postemergence treatment. Treated plants and untreated controls were maintained in a greenhouse for approximately 10 days, after which time all treated plants were compared to untreated controls and visually evaluated for injury. Plant response ratings, summarized in Table A, are based on a 0 to 100 scale where 0 is no effect and 100 is complete control. A dash (-) response means no test result.

kochia (Kochia scoparia) [2] = assay: Test A postemergence, visual plant response rating; conditions: Postemergence, 125 g ai/ha; 0 to 100 scale (0 no effect, 100 complete control)
Source text: as §1, §2

[3] = tested on: galium (catchweed bedstraw, Galium aparine); assay: Test A postemergence, visual plant response rating; conditions: Postemergence, 125 g ai/ha; 0 to 100 scale (0 no effect, 100 complete control)
Source text: as §1, §2

[4] = tested on: barnyardgrass (Echinochloa crus-galli); assay: Test A postemergence, visual plant response rating; conditions: Postemergence, 125 g ai/ha; 0 to 100 scale (0 no effect, 100 complete control)
Source text: as §1, §2

[5] = tested on: wheat (Triticum aestivum); assay: Test A postemergence, visual plant response rating; conditions: Postemergence, 125 g ai/ha; 0 to 100 scale (0 no effect, 100 complete control)
Source text: as §1, §2

[6] = tested on: Italian ryegrass (Lolium multiflorum); assay: Test A postemergence, visual plant response rating; conditions: Postemergence, 125 g ai/ha; 0 to 100 scale (0 no effect, 100 complete control)
Source text: as §1, §2

[7] = tested on: blackgrass (Alopecurus myosuroides); assay: Test A postemergence, visual plant response rating; conditions: Postemergence, 125 g ai/ha; 0 to 100 scale (0 no effect, 100 complete control)
Source text: as §1, §2

[8] = tested on: pigweed (Amaranthus retroflexus); assay: Test A postemergence, visual plant response rating; conditions: Postemergence, 125 g ai/ha; 0 to 100 scale (0 no effect, 100 complete control)
Source text: as §1, §2

corn (Zea mays) = assay: Test A postemergence, visual plant response rating; conditions: Postemergence, 125 g ai/ha; 0 to 100 scale (0 no effect, 100 complete control)
Source text: as §1, §2

[9] = tested on: ragweed (common ragweed, Ambrosia elatior); assay: Test A postemergence, visual plant response rating; conditions: Postemergence, 125 g ai/ha; 0 to 100 scale (0 no effect, 100 complete control)
Source text: as §1, §2

[10] = tested on: foxtail, giant (giant foxtail, Setaria faberii); assay: Test A preemergence, visual plant response rating; conditions: 125 g ai/ha, preemergence; 0 to 100 scale, 0 no effect, 100 complete control
Source text: as §1, §2

kochia (Kochia scoparia) [11] = assay: Test A preemergence, visual plant response rating; conditions: 125 g ai/ha, preemergence; 0 to 100 scale, 0 no effect, 100 complete control
Source text: as §1, §2

[12] = tested on: barnyardgrass (Echinochloa crus-galli); assay: Test A preemergence, visual plant response rating; conditions: 125 g ai/ha, preemergence; 0 to 100 scale, 0 no effect, 100 complete control
Source text: as §1, §2

[13] = tested on: Italian ryegrass (Lolium multiflorum); assay: Test A preemergence, visual plant response rating; conditions: 125 g ai/ha, preemergence; 0 to 100 scale, 0 no effect, 100 complete control
Source text: as §1, §2

[14] = tested on: pigweed (Amaranthus retroflexus); assay: Test A preemergence, visual plant response rating; conditions: 125 g ai/ha, preemergence; 0 to 100 scale, 0 no effect, 100 complete control
Source text: as §1, §2

[15] = tested on: ragweed (common ragweed, Ambrosia elatior); assay: Test A preemergence, visual plant response rating; conditions: 125 g ai/ha, preemergence; 0 to 100 scale, 0 no effect, 100 complete control
Source text: as §1, §2

CO/N=C(\c1cc(C(F)(F)F)ccc1Cl)c1c(O)c(C)nn(C)c1=O [Compound 54]
Foxtail, Giant plant response rating [1]: 40
Kochia plant response rating (kochia (Kochia scoparia) [2]): 50
Galium plant response rating [3]: 70
Barnyardgrass plant response rating [4]: 30
Wheat plant response rating [5]: 30
Ryegrass, Italian plant response rating [6]: 40
Blackgrass plant response rating [7]: 40
Pigweed plant response rating [8]: 60
Corn plant response rating (corn (Zea mays)): 10
Ragweed plant response rating [9]: 60
Foxtail, Giant plant response rating [10]: 40
Kochia plant response rating (kochia (Kochia scoparia) [11]): 0
Barnyardgrass plant response rating [12]: 40
Ryegrass, Italian plant response rating [13]: 70
Pigweed plant response rating [14]: 80
Ragweed plant response rating [15]: 70
